Read-outs that look alike come from different tables or passages of the source.
Key:
Assay in all cases: DSF thermal shift, kinase panel
Format in all cases: binding
[1] = molecular target: T1, CSNK2A1 (Homo sapiens, UniProt P68400); details: read-out: ΔTm
T1 construct: purchased in-house (home-made panel, SGC-style construct names)
Experimental: (§1) The corresponding dianilino-TDZs (1–5) were tested on a panel of 46 protein kinases representing the major kinome branches at a concentration of 10 μM using a Differential Scanning Fluorimetry (DSF). Only analogues 1–3 induced a significant (>2 °C) thermal shift when incubated with a subset of the proteins (Table 1).
(§2) Kinase selectivity assay—A home-made kinase panel was generated for the following enzymes: AAK1, BMP2K, BMX, BRAF, CAMK1D, CAMK1G, CAMKK1, CAMKK2B, CDC42BPA, CDK2, CDKL1, CHEK2, CLK1, CSNK1G1, CSNK1G3, CSNK2A1, DYRK1A, DYRK2A, EPHA2, GAK, GSG2, MAPK1, MAP2K7, MAPK14B, MAPK3, PHKG2, PIM1, PLK1, PKMYT1, PRPF4B, RPS6KA1A, RPS6KA5A, RPS6KA6A, SLK, SRPK1, SRPK2, STK3, STK6, STK10, STK17A, STK24, STK38L, TRIB2, TTK, VRK1 and VRK2. Proteins were produced in E. coli, purified in a Ni-chelate column, followed by overnight digestion using TEV protease (made in house with an N-terminal 6xHis tag) and dialysis to remove imidazole. To clear samples of uncleaved proteins and the TEV protease, samples were loaded on new Ni-chelate columns. The flow through was collected, concentrated and loaded to a HiLoad Superdex 200 16/600 column (GE Healthcare, Chicago, IL, USA) for final polishing and buffer exchange.
(§3) Starting from 100 µM protein stocks, our kinase panel enzymes were diluted to 1 µM in buffer 100 mM K2HPO4 pH 7.5 containing 150 mM NaCl, 10% glycerol and 5X dye (Applied Biosystems catalogue 4461806). The protein/dye mixture was transferred to a 384-well PCR microplate having 20 µL per well. Compounds in DMSO at 10 mM concentration were added in 20 nL volume, using a liquid handling device setup with a pin head, to make 10 µM compound concentration in the assay plate.
(§4) Protein thermal shift data was measured in a qPCR instrument (Applied Biosystems QuantStudio 6) programmed to equilibrate the plate at 25 °C for 5 min followed by ramping the temperature to 95 °C at a rate of 0.05 °C/s. Data was processed using Protein Thermal shift software (Applied Biosystems) by fitting experimental curves to a Boltzmann function to calculate differential thermal shifts (dTm) referenced to protein/dye in 0.2% DMSO.

[2] = molecular target: T2, BMXA (Homo sapiens, UniProt P51813); details: 10 μM compound
T2 construct: purchased in-house (home-made panel, SGC-style construct names)
T2 sequence (P51813 1-675): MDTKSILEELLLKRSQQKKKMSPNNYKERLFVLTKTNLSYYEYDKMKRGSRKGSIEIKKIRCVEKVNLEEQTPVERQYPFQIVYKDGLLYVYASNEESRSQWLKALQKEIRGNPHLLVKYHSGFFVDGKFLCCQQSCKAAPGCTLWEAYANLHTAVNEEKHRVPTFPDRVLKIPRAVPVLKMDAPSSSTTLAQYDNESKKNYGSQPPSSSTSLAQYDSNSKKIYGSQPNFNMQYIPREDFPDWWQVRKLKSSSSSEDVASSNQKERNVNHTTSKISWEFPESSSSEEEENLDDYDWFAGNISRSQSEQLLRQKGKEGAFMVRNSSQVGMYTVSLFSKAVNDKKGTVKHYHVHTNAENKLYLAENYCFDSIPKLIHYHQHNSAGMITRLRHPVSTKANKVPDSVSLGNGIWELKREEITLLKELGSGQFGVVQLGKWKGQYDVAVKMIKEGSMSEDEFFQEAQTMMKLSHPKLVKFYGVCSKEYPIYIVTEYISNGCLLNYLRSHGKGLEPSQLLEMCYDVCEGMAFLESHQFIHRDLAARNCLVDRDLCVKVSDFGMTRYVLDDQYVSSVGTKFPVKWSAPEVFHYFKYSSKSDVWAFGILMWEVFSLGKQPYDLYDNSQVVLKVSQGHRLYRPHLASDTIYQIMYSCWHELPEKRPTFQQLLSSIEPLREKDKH
Experimental: as §1, §2, §3, §4

[3] = molecular target: T3, RPS6KA1A (Homo sapiens, UniProt Q15418); details: 10 μM compound
T3 construct: purchased in-house (home-made panel, SGC-style construct names)
Experimental: as §1, §2, §3, §4

[4] = molecular target: T4, EPHA2A (Homo sapiens, UniProt P29317); details: 10 μM compound
T4 construct: purchased in-house (home-made panel, SGC-style construct names)
Experimental: as §1, §2, §3, §4

[5] = molecular target: T5, TTKA (Homo sapiens, UniProt P33981); details: 10 μM compound
T5 construct: TEV-cleavable (cleaved yes); made in house; host or cells: E. coli
T5 sequence (P33981 1-857): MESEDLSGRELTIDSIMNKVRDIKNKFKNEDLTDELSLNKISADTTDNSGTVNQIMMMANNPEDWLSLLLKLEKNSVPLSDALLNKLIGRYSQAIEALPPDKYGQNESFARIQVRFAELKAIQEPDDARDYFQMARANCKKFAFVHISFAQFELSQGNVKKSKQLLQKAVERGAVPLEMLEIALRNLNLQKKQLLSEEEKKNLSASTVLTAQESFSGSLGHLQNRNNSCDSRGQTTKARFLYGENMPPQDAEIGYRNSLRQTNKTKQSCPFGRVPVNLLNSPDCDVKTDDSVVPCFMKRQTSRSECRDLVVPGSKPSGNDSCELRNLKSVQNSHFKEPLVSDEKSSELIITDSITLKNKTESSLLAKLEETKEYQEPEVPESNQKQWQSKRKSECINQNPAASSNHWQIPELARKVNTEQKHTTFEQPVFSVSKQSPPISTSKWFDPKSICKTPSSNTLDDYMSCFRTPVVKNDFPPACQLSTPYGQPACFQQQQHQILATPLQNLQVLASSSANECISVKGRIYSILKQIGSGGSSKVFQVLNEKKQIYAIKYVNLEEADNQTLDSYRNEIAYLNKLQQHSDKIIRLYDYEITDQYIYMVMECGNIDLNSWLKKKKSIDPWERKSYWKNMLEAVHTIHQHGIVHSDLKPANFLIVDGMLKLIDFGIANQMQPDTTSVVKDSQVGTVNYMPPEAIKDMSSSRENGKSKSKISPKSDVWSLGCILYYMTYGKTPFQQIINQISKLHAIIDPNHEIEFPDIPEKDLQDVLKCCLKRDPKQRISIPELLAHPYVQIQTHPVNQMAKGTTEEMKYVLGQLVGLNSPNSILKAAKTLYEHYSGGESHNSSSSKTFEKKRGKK
Experimental: as §1, §2, §3, §4

T3 sequence (Q15418 whole entry): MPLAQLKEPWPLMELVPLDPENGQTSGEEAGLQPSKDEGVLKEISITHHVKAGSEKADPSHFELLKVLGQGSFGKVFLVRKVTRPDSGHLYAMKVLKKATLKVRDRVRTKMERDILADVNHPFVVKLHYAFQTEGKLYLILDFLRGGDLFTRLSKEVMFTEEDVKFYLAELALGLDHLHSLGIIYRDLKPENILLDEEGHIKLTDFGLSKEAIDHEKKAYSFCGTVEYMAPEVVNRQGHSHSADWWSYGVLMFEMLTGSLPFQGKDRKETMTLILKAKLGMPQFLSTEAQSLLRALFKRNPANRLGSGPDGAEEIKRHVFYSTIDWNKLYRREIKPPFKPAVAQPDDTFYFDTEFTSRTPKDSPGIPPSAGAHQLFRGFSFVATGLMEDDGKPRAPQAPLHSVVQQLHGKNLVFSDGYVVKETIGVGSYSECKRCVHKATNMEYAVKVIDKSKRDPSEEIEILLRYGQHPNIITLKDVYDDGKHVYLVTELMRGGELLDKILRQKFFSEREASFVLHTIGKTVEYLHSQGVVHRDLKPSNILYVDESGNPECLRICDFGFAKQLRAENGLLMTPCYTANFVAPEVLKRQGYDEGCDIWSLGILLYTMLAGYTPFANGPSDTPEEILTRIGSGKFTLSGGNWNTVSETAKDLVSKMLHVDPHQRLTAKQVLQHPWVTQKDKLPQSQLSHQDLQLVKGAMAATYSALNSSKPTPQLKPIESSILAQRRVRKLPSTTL
T4 sequence (P29317 24-976): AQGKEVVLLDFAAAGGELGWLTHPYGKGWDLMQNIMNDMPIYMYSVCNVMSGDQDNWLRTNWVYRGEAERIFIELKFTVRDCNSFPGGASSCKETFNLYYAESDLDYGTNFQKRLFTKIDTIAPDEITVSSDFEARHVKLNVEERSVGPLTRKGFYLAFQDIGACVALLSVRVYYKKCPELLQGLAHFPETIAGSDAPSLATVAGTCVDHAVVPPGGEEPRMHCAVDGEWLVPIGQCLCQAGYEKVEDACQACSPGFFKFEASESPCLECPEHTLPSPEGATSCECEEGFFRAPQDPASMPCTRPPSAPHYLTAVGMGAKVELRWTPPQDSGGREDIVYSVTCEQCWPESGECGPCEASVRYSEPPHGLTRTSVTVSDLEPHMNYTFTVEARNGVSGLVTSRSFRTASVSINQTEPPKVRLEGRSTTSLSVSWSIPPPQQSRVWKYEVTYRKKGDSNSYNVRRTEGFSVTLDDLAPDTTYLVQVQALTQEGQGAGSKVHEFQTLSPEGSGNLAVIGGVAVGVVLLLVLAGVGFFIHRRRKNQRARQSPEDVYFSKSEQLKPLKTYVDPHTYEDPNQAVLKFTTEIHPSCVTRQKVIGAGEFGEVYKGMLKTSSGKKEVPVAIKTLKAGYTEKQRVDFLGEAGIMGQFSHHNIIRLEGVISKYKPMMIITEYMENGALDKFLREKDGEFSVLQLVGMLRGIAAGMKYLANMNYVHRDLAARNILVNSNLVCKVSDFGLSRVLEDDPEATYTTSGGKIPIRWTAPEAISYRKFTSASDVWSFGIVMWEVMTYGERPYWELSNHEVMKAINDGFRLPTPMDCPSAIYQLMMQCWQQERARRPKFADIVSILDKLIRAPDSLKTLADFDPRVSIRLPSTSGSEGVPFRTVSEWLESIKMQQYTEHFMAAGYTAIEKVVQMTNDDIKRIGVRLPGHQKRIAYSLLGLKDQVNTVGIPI
T1 sequence (P68400 whole entry): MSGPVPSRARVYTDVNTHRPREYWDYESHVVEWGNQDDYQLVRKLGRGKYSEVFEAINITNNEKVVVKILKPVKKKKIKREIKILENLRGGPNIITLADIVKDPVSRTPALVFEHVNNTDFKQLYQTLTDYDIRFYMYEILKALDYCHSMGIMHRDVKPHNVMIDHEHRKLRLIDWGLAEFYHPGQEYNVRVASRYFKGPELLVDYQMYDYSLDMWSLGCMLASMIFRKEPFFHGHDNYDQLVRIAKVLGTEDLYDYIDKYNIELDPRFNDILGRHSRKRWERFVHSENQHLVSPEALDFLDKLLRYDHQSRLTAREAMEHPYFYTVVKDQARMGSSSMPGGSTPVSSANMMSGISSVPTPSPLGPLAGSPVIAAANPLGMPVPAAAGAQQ

| Compound | ΔTm at 10 µM ([1]; DSF, 10 μM compound) | ΔTm at 10 µM [2] | ΔTm at 10 µM [3] | ΔTm at 10 µM [4] | ΔTm at 10 µM [5] | ΔTm at 10 µM [1] |
| --- | --- | --- | --- | --- | --- | --- |
| CNC(=O)c1ccccc1Nc1nsnc(Nc2cccc(CS(C)(=O)=O)c2)c1=O [Compound 4, N-Methyl-2-([5-({3-[(methylsulfonyl)methyl]phenyl}amino)-4-oxo-4H-1,2,6-thiadiazin-3-yl]-amino}-benzamide] | -0.4 °C | 0 °C | -0.4 °C | -0.1 °C | 0.3 °C |  |
| CNC(=O)c1ccccc1Nc1nsnc(Nc2ccc(N3CCOCC3)cc2)c1=O [Compound 5, N-Methyl-2-({5-[(4-morpholinophenyl)amino]-4-oxo-4H-1,2,6-thiadiazin-3-yl}amino)benzamide] | -0.4 °C | 0 °C | -0.4 °C | 0 °C | 0.1 °C |  |
| Cc1ccc(Nc2nsnc(Nc3ccc(C(N)=O)cc3)c2=O)cc1O [Compound 2, 4-({5-[(3-Hydroxy-4-methylphenyl)amino]-4-oxo-4H-1,2,6-thiadiazin-3-yl}amino)benzamide] |  | -0.1 °C | 1.3 °C | 0.5 °C | 2.6 °C | -0.2 °C |
| Cc1ccc(Nc2nsnc(Nc3ccc4c(c3)CS(=O)(=O)C4)c2=O)cc1O [Compound 3, 3-[(2,2-Dioxido-1,3-dihydrobenzo[c]thiophen-5-yl)amino]-5-[(3-hydroxy-4-methylphenyl)amino]-4H-1,2,6-thiadiazin-4-one] | -0.6 °C | 0 °C | -0.4 °C | 0.8 °C | 2.1 °C |  |
| Cc1ccc(Nc2nsnc(Nc3cccc(C(N)=O)c3)c2=O)cc1O [Compound 1, 3-({5-[(3-Hydroxy-4-methylphenyl)amino]-4-oxo-4H-1,2,6-thiadiazin-3-yl}amino)benzamide] | -0.9 °C | 0.1 °C | -0.6 °C | 0.2 °C | 0.8 °C |  |

Source: article PMC6019134, “1,2,6-Thiadiazinones as Novel Narrow Spectrum Calcium/Calmodulin-Dependent Protein Kinase Kinase 2 (CaMKK2) Inhibitors” (Molecules : A Journal of Synthetic Chemistry and Natural …, 2018)
